Legend:
[1] = molecular target: muscarinic M1/M2 receptor; assay: Muscarinic M1/M2 receptor binding assay (displacement of 3H-QNB); settings: 3H-QNB 0.126 nM, rat frontal cortex membranes, 32° C., 60 min, pH 7.4; read-out: Receptor affinity M1/M2 (Ki)
[2] = molecular target: T1, human D4 receptor (D4.2 sub-type) (Homo sapiens, UniProt P21917, DEL265-296); assay: Dopamine D4 receptor binding assay (displacement of 3H-spiperone); settings: 3H-spiperone 0.25 nM, transfected with human D4.2, room temperature, 90 min; read-out: Receptor affinity D4 (Ki)
T1 construct: expressed in transfected cells; host or cells: HEK 298 (so in the source)
T1 sequence (P21917 with tags, fused parts or gaps DEL265-296): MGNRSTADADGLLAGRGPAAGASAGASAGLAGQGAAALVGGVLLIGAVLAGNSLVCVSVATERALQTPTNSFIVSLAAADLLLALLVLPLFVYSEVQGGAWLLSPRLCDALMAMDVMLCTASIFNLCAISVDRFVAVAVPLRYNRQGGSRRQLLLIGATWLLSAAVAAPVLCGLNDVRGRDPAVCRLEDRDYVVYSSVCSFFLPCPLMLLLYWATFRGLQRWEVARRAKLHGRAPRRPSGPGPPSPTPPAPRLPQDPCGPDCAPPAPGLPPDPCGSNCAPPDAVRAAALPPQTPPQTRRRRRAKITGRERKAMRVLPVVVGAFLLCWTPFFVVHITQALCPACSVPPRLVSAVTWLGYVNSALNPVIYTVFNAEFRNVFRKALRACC

[3] = molecular target: T2, human D2 receptor (short isoform) (Homo sapiens, UniProt P14416); assay: Dopamine D2 receptor binding assay (displacement of 3H-spiperone); settings: 3H-spiperone 0.25 nM, GH4C1 cells transfected with human D2 short isoform, room temperature, 90 min; read-out: Receptor affinity D2 (Ki)
T2 construct: expressed in transfected cells
T2 sequence (P14416 1-414 isoform P14416-2): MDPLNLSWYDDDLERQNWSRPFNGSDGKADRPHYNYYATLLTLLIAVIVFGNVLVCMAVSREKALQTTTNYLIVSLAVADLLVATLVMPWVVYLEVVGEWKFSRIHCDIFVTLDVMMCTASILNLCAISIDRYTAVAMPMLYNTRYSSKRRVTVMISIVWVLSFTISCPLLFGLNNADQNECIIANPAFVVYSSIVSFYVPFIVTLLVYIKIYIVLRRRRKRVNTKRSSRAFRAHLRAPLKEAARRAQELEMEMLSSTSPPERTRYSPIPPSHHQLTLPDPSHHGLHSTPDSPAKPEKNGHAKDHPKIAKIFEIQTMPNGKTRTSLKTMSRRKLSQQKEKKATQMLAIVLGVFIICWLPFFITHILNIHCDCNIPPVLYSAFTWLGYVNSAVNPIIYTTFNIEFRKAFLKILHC

5-HT2 receptor = 5-HT2 receptor (Rattus norvegicus, UniProt P14842); assay: 5-HT2 receptor binding assay (displacement of 3H-ketanserin)
Chain of 5-HT2 receptor (P14842 whole entry): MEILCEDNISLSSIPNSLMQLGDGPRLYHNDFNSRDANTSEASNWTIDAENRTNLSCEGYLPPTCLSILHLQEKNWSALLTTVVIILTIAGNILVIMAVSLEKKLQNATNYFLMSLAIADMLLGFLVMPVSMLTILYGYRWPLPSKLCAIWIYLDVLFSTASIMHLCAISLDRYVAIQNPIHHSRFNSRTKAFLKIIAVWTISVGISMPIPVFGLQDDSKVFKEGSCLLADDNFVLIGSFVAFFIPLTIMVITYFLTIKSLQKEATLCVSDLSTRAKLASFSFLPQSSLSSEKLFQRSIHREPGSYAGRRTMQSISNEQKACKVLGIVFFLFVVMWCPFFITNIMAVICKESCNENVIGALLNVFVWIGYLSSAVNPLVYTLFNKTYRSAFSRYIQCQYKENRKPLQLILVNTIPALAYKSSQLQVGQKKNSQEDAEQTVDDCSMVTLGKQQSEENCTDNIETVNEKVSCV

| Ki [1] | Ki [2] | Ki [3] | Ki (5-HT2 receptor) | Compound |
| --- | --- | --- | --- | --- |
| 41 nM | 4770 nM | 4710 nM | 1600 nM | CN1CC2CC1CN2C1=Nc2cc(Cl)c(Cl)cc2Nc2ccccc21 (stereo not drawn) [7,8-dichloro-11-(2-methyl-2,5-diazabicyclo(2.2.1)hept-5-yl)-dibenzo[b,e][1,4]diazepine] |
| 28 nM | 4770 nM | 4520 nM | 1020 nM | CN1CC2CC1CN2C1=Nc2cc(Cl)ccc2Oc2ccccc21 (stereo not drawn) [8-chloro-11-(2-methyl-2,5-diazabicyclo(2.2.1)hept-5-yl)-dibenz[b,f][1,4]oxazepine] |
| 882 nM | 632 nM | 1330 nM | 3670 nM | c1ccc(CN2CC3CC2CN3C2=Nc3ccccc3Oc3ccccc32)cc1 (stereo not drawn) [11-(2-benzyl-2,5-diazabicyclo(2.2.1)hept-5-yl)-dibenz[b,f][1,4]oxazepine] |

From patent US5561127A, “Muscarinic receptor ligands” (Allelix Biopharmaceuticals, Inc., priority 1994, dated 1996)
